Several values for one entry are separate records, joined by “and”; a condition that tells them apart may be missing. Equal values may be shown once.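 Interpolation was linear, between the two tested concentrations surrounding the appropriate level; five concentrations were tested over 48 hours in 96-well plates. GI50 = concentration required for 50% inhibition of growth. TGI: concentration producing complete growth inhibition.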
How the values were obtained:
Test in all cases: NCI tumour cell line growth inhibition, 48 h
SK-MEL-5 melanoma = tested on: SK-MEL-5 melanoma
SK-OV-3 ovarian = tested on: SK-OV-3 ovarian
CCRF-CEM leukemia = tested on: CCRF-CEM leukemia
MOLT-4 leukemia = tested on: MOLT-4 leukemia
K-562 leukemia = tested on: K-562 leukemia
CAKI-1 renal = tested on: CAKI-1 renal
LOX IMVI melanoma = tested on: LOX IMVI melanoma
HCT-15 colon = tested on: HCT-15 colon
COLO 205 colon = tested on: COLO 205 colon
EKVX NSCLC = tested on: EKVX NSCLC

| SMILES | GI50 (SK-MEL-5 melanoma) | TGI (SK-MEL-5 melanoma) | GI50 (SK-OV-3 ovarian) | TGI (SK-OV-3 ovarian) | GI50 (CCRF-CEM leukemia) | TGI (CCRF-CEM leukemia) | GI50 (MOLT-4 leukemia) | TGI (MOLT-4 leukemia) | GI50 (K-562 leukemia) | TGI (K-562 leukemia) | GI50 (CAKI-1 renal) | TGI (CAKI-1 renal) | GI50 (LOX IMVI melanoma) | TGI (LOX IMVI melanoma) | GI50 (HCT-15 colon) | TGI (HCT-15 colon) | GI50 (COLO 205 colon) | TGI (COLO 205 colon) | GI50 (EKVX NSCLC) | TGI (EKVX NSCLC) |
| --- | --- | --- | --- | --- | --- | --- | --- | --- | --- | --- | --- | --- | --- | --- | --- | --- | --- | --- | --- | --- |
| FC(F)(c1ccc2ncccc2c1)c1nnc2ccc(-c3ccncc3)nn12 | 48.5 µM | > 100 µM | > 100 µM | > 100 µM | > 100 µM | > 100 µM | 38.4 µM | > 100 µM | 52.7 µM | > 100 µM | 25.1 µM | > 100 µM | 49.6 µM | > 100 µM | 60 µM | > 100 µM | 91.1 µM | > 100 µM | 21.4 µM | > 100 µM |
| NS(=O)(=O)c1ccc(-n2nc3c(c2-c2ccc(Cl)cc2)Cc2ccccc2-3)cc1 | 1.36 µM | 3.33 µM | 77.1 µM | > 100 µM | 2.96 µM | 9.08 µM | 5.51 µM | 23.1 µM | 4.98 µM | 17.2 µM | 17.5 µM | 31.6 µM | 19 µM | 37.4 µM | 19.7 µM | 38.4 µM | 22.8 µM | 64.1 µM | 17.1 µM | 33.5 µM |
| COc1ccc(-c2ccncc2)cc1C(N)=O | > 25 µM | > 25 µM | > 25 µM | > 25 µM | > 25 µM | > 25 µM | > 25 µM | > 25 µM | > 25 µM | > 25 µM | > 25 µM | > 25 µM | > 25 µM | > 25 µM | > 25 µM | > 25 µM | > 25 µM | > 25 µM | > 25 µM | > 25 µM |
| O=c1/c(=C/c2ccccc2[N+](=O)[O-])sc2nc3ccccc3n12 | – | > 46.4 µM | – | > 31.6 µM | – | 22.7 µM | – | > 46.4 µM | – | > 46.4 µM | – | > 100 µM | – | 31.9 µM | – | 31.6 µM | – | > 46.4 µM | – | > 100 µM |
| COc1cccc(/C(C#N)=C/c2nc3c(N4CCOCC4)nc(Cl)nc3n2C)c1 | 1.73 µM | 3.14 µM | 5.42 µM | 18.3 µM | 0.318 µM | 0.934 µM | 1.27 µM | 4.79 µM | 0.447 µM | 10.3 µM | 0.621 µM | 1.99 µM | 1.01 µM | 2.25 µM | 0.312 µM | 1.3 µM | 1.33 µM | 3.09 µM | 1.44 µM | 2.84 µM |
| COc1ccc(OC)c(NC(=O)CCC/C(CC(=O)c2ccc(O)c(OC)c2)=N\Nc2nnc(C)n2N)c1 | – | > 100 µM | – | > 100 µM | – | > 100 µM | – | > 100 µM | – | > 100 µM | – | > 100 µM | – | > 100 µM | – | > 100 µM | – | > 100 µM | – | > 100 µM |
| C/C=C(/I)CBr | – | 29.4 µM | – | 64.7 µM | – | 23.4 µM | – | 55.9 µM | – | > 100 µM | – | 2.85 µM | – | 36.2 µM | – | 51.2 µM | – | 28.2 µM | – | 49 µM |
| CC(C)Nc1cc(-c2c[nH]c(C(=O)N[C@H](CO)c3cccc(Cl)c3)c2)c(Cl)cn1 | 0.64 µM and 0.752 µM | 7.82 µM and 9.83 µM | 3.23 µM and > 7.67 µM | 18 µM and > 10 µM | 4.09 µM and 4.7 µM | > 100 µM | 2.55 µM and 2.57 µM | 19.6 µM and > 10 µM | 3.35 µM | > 10 µM | 1.17 µM and 1.87 µM | 19.1 µM and > 10 µM | 0.157 µM and 0.316 µM | 12.8 µM and > 10 µM | 2.89 µM and 2.68 µM | 14.4 µM and > 10 µM | 0.104 µM and 0.076 µM | 3.06 µM and 1.59 µM | 1.97 µM and 0.783 µM | 15.4 µM and > 10 µM |
| CC(C)c1c(-c2ccccc2)nc2c(C#N)c[nH]n2c1=O | 19.6 µM | 40.4 µM | 27.2 µM | > 88.6 µM | 28.5 µM | > 100 µM | 32 µM | > 100 µM | 33.8 µM | > 100 µM | 31.2 µM | > 100 µM | 29 µM | > 91.2 µM | 31.8 µM | > 100 µM | 25.1 µM | 75.2 µM | 49.4 µM | > 100 µM |
| COc1ccc(NC(=O)/C(=C/c2ccccc2)C(C)=O)cc1 | – | 28.2 µM | – | 95.1 µM | – | 27.9 µM | – | 32.6 µM | – | > 100 µM | – | 29.2 µM | – | 27.8 µM | – | 40.8 µM | – | 35.7 µM | – | 49.4 µM |
| CC(C)c1cnn2c(NCc3ccccc3)cc(NC[C@H]3CCNC[C@@H]3O)nc12 | 0.742 µM and 1.19 µM | 2.35 µM and 3.59 µM | 4.71 µM and 3.41 µM | 15.1 µM and 16.5 µM | 0.31 µM and 0.672 µM | 6.01 µM and 14.9 µM | 0.361 µM and 0.504 µM | 10.2 µM and 14 µM | 0.409 µM and 0.571 µM | 11.3 µM and > 100 µM | 0.472 µM and 1.65 µM | 9.13 µM and 11.4 µM | 0.0945 µM and 0.0967 µM | 1.49 µM and 0.542 µM | 2.94 µM and 2.69 µM | 15.2 µM and 12.2 µM | 0.179 µM and 0.21 µM | 0.476 µM and 0.749 µM | 0.861 µM and 0.645 µM | 8.2 µM and 6.07 µM |
| COc1ccc(NC(=O)CSC2=C(Nc3cccc(Br)c3)C(=O)N(Cc3ccccc3)C2=O)cc1Cl | 16.8 µM | > 100 µM | > 100 µM | > 100 µM | 1.72 µM | 29.6 µM | 1.73 µM | > 100 µM | 4.41 µM | > 100 µM | > 100 µM | > 100 µM | 40.4 µM | > 100 µM | > 100 µM | > 100 µM | > 100 µM | > 100 µM | 84.8 µM | > 100 µM |
| O=C(NOC[C@H](O)CO)c1ccc(F)c(F)c1Nc1ccc(I)cc1F | 4.17 µM and > 10 µM | > 100 µM | – | > 100 µM | > 100 µM | > 100 µM | 57.9 µM and > 10 µM | > 100 µM | – | > 100 µM | – | > 100 µM | < 0.0127 µM and 0.0397 µM | 19.9 µM and > 6.5 µM | 2.73 µM and 0.919 µM | > 100 µM | < 0.01 µM and 0.00143 µM | > 100 µM | 0.101 µM and 0.0891 µM | > 100 µM |
| CCNC(=O)COc1ccc(Br)cc1Br | – | > 100 µM | – | > 100 µM | – | > 100 µM | – | > 100 µM | – | > 100 µM | – | > 100 µM | – | > 100 µM | – | > 100 µM | – | > 100 µM | – | 34.3 µM |
| O=C(/C=C/C12c3ccccc3C(c3ccccc31)C1C(=O)NC(=O)C12)c1ccc(Cl)cc1Cl (configuration not stated) | 1.71 µM | 3.34 µM | 2.4 µM | 6.71 µM | 1.89 µM | 7.23 µM | 1.77 µM | 5.58 µM | 2.57 µM | 10.9 µM | 1.57 µM | 3.05 µM | 1.88 µM | 3.57 µM | 1.9 µM | 4.57 µM | 2.2 µM | 4.24 µM | 1.86 µM | 4.16 µM |
| COc1ccccc1C#Cc1ccccc1C#CCCCCO | 14.1 µM | 29.5 µM | 17.9 µM | 40.7 µM | 16.3 µM | 85.6 µM | 19.6 µM | 96 µM | 15.5 µM | > 100 µM | 19.7 µM | 42.7 µM | 17.9 µM | 36 µM | 19.9 µM | 48.9 µM | 18.3 µM | 37.7 µM | 15.9 µM | 34.4 µM |

— PubChem BioAssay (NCI)
